We go through two compounds from patent publication US20190292189A1, “LIM KINASE INHIBITORS” (VIRONGY, LLC, priority 2016, published 2019).

One may read the IC50 as the concentration needed to halve the response being measured. One may read the Cmax as the maximum level reached in the sampled fluid or tissue.

One data set addresses ROCK-II (Homo sapiens, UniProt O75116). Kind of data set: ROCK-II biochemical counter-screen. (In general: A counterscreen serves to expose hits that act by an unwanted route or on another target.)
Another data set has as its target P450 2C9 (Homo sapiens, UniProt P11712). Kind of data set: P450 inhibition at 10 μM. It counts as in vitro ADME.
A further data set concerns the target P450 2D6 (Homo sapiens, UniProt P10635). Description: P450 inhibition at 10 μM. It counts as in vitro ADME.
The target in another data set is P450 3A4 (Homo sapiens, UniProt P08684). Kind of data set: P450 inhibition at 10 μM. It counts as in vitro ADME.
Sequence of P450 3A4 (P08684 whole entry): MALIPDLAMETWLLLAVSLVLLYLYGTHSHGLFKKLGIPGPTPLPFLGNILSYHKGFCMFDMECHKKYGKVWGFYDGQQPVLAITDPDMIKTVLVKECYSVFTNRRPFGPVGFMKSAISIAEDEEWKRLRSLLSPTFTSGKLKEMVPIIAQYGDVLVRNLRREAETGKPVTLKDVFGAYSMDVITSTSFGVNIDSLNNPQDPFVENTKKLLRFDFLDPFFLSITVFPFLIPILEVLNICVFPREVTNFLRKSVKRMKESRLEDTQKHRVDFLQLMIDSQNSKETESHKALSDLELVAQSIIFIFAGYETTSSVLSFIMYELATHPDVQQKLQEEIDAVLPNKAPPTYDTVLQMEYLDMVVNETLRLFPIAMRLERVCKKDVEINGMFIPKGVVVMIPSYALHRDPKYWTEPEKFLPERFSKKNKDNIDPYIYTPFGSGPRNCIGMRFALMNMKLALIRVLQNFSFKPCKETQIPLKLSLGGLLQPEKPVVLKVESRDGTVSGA
The nature of data set [1]: Microsomal stability, human liver microsomes. It counts as in vitro ADME. A general note: Microsomes from liver hold many membrane-bound enzymes, among them those of drug oxidation.
Data set [2] is described as follows: Microsomal stability, rat liver microsomes. It counts as in vitro ADME. The following applies: rat liver microsomes.
Data set [3] deals with cofilin phosphorylation in A7r5 cells. Kind of data set: In-cell Western assay of cofilin phosphorylation in A7r5 cells. It counts as cell-based. The following applies: A7R5, A7r5 cells; read-out: Cofilin Phosphorylation In A7r5 Cells (IC50). How it is done: A7r5 (15,000 cells/well) were plated in a clear-bottomed Packard View black 96-well plate in 100 μl of 10% FBS DMEM:F12 medium and were allowed to attach overnight. The next day, the cells were serum starved in 1% FBS DMEM medium for 2 hr and then treated with the compounds for 1 hr. […] Next day, they were washed twice with PBS-0.1% Tween 20 (PBST) washing solution for 5 min each at room temperature on the orbital shaker, followed by one wash with Licor Blocking Buffer containing 0.05% Tween-20 for 5 min on the shaker at RT. The cells were then incubated with secondary antibody goat anti-rabbit IR800 (1:500 dilution) for 1 hr at RT in the dark (covered the plate with foil) in Licor blocking buffer-containing Tween-20. Following this, cells were washed twice with PBST for 5 min each at room temperature and then once with Licor blocking buffer-containing 0.05% Tween-20. The wells were then incubated with ToPro 3 stain (nucleic acid staining), diluted 1:4000 in Licor blocking buffer or Licor blocking buffer with 0.05% Tween-20 for 30 min at room temperature in the dark. Finally the plates were washed twice with PBS and analyzed using the Odyssey LICOR Infrared Scanner.

A short description of data set [4]: Plasma pharmacokinetics studies on rats. The following applies: rats, iv dosing 1 mg/kg. How it is done: In vivo pharmacokinetics (PK) studies were conducted for selected compounds during the whole optimization at various stages in order to identify structural elements that are favorable for in vivo applications, and/or to evaluate the feasibility of optimized Limk inhibitors for animal studies.

Data set [5] in a line: IOP lowering on rat eyes, topical dosing. It counts as in vivo, Brown Norway rats.
A further data set addresses T1, P450 1A2 (Homo sapiens, UniProt P05177).
T1 sequence (P05177 1-516): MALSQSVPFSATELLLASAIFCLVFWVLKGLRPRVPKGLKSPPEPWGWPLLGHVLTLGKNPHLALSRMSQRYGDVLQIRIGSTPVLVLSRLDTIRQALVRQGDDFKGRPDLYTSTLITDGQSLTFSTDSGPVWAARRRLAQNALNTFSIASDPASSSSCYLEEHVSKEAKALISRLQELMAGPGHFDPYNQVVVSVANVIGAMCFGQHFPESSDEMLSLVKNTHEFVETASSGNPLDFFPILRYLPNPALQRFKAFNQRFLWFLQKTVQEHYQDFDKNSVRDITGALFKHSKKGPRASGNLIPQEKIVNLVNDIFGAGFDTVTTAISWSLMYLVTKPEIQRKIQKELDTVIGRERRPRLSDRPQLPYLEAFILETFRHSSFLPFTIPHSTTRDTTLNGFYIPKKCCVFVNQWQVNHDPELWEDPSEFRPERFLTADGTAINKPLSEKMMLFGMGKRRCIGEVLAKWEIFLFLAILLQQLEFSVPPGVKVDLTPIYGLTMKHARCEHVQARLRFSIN
The following applies: 10 μM.

Data set [6] concerns the target T2, Limk1 (Homo sapiens, UniProt P53667). Kind of data set: Limk1 biochemical assay (Reaction Biology, 10-dose IC50). More on the design: His; purchased Reaction Biology Corporation; host or cells: insect cells. The following applies: Table 5; means of ≥2 experiments; read-out: Biochemical IC50 (nM) Limk1.
Target sequence in this assay (P53667 285-638): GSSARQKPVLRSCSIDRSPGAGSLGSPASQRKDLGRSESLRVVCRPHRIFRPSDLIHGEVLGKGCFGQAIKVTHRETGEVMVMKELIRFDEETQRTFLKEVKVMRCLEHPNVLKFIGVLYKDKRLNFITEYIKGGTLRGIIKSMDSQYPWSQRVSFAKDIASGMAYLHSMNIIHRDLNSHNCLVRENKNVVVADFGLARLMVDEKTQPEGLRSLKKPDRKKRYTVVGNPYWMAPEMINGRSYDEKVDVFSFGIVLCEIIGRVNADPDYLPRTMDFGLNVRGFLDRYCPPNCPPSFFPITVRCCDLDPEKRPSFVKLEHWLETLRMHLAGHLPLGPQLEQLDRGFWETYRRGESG
The target of data set [7] is T2, Limk1. To be noted: reported by a Japanese group; read-out: Limk1 inhibition IC50; cited from earlier work.
Target sequence in this assay (P53667 whole entry, species assumed): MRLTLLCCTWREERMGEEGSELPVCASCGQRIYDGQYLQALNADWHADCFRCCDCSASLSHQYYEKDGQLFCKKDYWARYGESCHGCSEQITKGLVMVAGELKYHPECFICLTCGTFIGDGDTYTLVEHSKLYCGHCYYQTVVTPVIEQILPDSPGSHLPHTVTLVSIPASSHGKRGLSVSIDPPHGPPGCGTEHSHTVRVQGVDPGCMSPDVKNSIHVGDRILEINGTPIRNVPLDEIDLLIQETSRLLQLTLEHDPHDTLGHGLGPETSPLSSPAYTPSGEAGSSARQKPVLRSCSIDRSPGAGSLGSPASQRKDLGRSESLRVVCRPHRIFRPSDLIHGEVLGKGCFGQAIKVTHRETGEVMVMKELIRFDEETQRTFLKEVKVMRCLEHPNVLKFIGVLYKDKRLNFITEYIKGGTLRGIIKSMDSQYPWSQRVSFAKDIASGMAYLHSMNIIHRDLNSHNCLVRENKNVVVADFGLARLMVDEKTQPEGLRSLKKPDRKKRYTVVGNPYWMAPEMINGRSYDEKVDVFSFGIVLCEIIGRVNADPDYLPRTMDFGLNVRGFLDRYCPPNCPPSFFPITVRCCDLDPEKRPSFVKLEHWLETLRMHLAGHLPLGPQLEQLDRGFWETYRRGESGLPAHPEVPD

Like-named read-outs stand apart in the source and are kept apart here.

Sequence of ROCK-II (O75116 whole entry, species assumed): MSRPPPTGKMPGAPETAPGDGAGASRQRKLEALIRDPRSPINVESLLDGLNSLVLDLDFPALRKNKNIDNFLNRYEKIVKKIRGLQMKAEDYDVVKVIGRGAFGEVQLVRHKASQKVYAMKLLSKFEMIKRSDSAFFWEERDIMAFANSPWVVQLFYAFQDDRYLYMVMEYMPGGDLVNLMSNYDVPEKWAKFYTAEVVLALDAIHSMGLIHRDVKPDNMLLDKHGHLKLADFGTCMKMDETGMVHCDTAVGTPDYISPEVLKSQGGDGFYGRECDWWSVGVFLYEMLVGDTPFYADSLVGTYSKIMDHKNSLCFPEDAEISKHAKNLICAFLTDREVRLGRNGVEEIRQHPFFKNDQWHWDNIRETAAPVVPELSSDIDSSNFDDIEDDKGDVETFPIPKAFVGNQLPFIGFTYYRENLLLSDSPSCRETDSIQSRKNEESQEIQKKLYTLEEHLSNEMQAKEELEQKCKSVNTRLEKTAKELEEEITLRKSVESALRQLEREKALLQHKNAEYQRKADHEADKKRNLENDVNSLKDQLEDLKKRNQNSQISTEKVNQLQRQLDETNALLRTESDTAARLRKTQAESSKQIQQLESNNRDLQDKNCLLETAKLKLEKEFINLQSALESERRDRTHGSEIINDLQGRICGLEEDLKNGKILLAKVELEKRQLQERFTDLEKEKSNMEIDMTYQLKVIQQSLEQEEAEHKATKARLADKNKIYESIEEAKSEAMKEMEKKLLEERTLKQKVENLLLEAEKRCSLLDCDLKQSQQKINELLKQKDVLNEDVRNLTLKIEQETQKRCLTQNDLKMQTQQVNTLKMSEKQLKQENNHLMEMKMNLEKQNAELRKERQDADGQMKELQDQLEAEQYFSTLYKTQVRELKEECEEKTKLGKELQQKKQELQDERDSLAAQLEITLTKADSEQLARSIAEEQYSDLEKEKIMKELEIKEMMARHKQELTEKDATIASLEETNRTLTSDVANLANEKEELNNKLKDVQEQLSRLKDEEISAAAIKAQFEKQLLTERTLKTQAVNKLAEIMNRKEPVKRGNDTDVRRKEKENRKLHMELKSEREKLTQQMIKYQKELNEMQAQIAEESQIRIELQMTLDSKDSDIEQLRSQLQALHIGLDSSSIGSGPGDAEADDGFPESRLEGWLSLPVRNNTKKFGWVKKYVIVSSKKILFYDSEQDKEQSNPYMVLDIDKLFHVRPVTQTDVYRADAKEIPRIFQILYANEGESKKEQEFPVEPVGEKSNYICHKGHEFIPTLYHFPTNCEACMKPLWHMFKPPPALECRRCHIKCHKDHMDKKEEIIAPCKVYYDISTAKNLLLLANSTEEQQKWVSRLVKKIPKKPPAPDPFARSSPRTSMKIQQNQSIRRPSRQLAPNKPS
Sequence of P450 2D6 (P10635 whole entry): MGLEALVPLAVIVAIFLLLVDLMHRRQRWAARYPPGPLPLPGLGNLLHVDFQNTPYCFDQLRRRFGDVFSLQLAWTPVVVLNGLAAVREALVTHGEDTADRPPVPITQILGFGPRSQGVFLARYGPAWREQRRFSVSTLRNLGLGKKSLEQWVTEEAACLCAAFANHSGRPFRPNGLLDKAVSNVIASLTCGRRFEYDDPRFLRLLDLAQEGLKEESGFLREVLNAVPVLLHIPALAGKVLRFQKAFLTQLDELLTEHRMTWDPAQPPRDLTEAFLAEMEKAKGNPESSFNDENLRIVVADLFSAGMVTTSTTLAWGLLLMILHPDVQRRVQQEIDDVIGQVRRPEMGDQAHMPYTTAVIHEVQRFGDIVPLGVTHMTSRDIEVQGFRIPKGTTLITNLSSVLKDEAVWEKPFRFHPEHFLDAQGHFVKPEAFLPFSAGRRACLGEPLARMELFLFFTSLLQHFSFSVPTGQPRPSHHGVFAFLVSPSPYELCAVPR
Sequence of P450 2C9 (P11712 whole entry): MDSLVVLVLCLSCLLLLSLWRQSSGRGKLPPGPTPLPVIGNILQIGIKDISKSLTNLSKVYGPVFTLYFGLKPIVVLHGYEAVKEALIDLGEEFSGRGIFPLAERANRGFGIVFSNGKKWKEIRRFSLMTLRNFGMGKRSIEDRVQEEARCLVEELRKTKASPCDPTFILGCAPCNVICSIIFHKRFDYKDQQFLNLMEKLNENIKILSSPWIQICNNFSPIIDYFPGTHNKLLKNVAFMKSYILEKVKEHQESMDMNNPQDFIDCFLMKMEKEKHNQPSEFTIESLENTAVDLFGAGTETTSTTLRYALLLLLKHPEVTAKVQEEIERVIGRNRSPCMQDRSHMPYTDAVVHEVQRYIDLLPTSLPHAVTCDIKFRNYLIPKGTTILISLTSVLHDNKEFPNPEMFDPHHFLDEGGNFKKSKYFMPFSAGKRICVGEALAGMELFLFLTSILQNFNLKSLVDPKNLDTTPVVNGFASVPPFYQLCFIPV

Regarding `Cc1[nH]c2ncnc(-c3ccc(NC(=O)N(CCN(C)C)c4ccc(Cl)cc4)c(F)c3)c2c1C` [Compound 18w, 1-(4-Chlorophenyl)-3-(4-(5,6-dimethyl-7H-pyrrolo[2,3-d]pyrimidin-4-yl)-2-fluorophenyl)-1-(2-(dimethylamino)ethyl)urea], the IC50 on ROCK-II (Table 5, means of ≥2 experiments, read-out: Biochemical IC50 (nM) ROCK-II) was greater than 20000 nM. Besides, at ROCK-II (read-out: ROCK-II IC50), the IC50 was greater than 20000 nM. Also, at P450 2C9, the “P450 % inh. at 10 μM 2C9” value is −23%. Moreover, the “P450 % inh. at 10 μM 2D6” value at P450 2D6 is listed as 20%. The “P450 % inh. at 10 μM 3A4” value on P450 3A4 was −9%. The “Microsomal Stability t1/2 (min) Human” value in data set [1] is 19 min. Also, the “Microsomal Stability t1/2 (min) Rat” value in data set [2] was 23 min. For the same compound, in [3], the IC50 is 320 nM. Further, in data set [4], the “AUC (iv)” value came to 3.0 µM·h, the “Cl (iv)” value is listed as 14.2 mL/min/kg, the “T1/2 (iv)” value was determined as 198 min and the “Yd (iv)” value was 1.5 L/kg. In addition, the Cmax in data set [4] (read-out: Cmax (iv)) was 2400 nM. Besides, in data set [5] (20 ul of […], from 1 to 4 hours, baseline 28 mmHg), the “maximal IOP decrease of the treated eye” value is given as roughly 6 mmHg. Besides, the “IOP drop on rat eyes” value in [5] (topical, dose of 50 μg) is greater than 20%. Also, the “P450 % inh. at 10 μM 1A2” value at P450 1A2 was found to be 15%. Besides, the IC50 on Limk1 [6] stood at 19 nM.
Consider `COc1c(C=O)c(O)cc2c1C(=O)c1ccccc1C2=O` [Damnacanthal], for which, at Limk1 [7], the IC50 is roughly 800 nM.
